The results in this text go back to patent US5095016A, “Benzopyran compounds, processes for their production and pharmaceutical compositions” (Kaken Pharmaceutical Co., Ltd., priority 1989, dated 1992).

Molecules are shown by their SMILES. Like-named read-outs stand apart in the source and are kept apart here.

The nature of data set [1]: Acute toxicity test (oral). Conditions: mouse, in vivo, male mice, mortality after 72 hours. As to the method: For an acute toxicity test, ten male mice with body weights of 22 to 25 g were used as one group, and a compound of the present invention was orally administered at a dose corresponding to the body weight. From the mortality after 72 hours, LD50 was calculated by an area method.

Data set [2] concerns spontaneously hypertensive rat (SHR). The experiment in a line: Blood pressure lowering activity in spontaneously hypertensive rats (oral). It counts as in vivo. The method, then: A male spontaneously hypertensive rat (SHR) of 20 weeks old was put in a cage and heated in a heating box at 45° C. for 5 minutes. SHR heated for 5 minutes was fixed to a measuring board, and a cuff for pressurizing and for blood pressure measurement was attached to the tail. As the pressurizing started, the heart rate was measured. After the rat became quiet, the maximum blood pressure was measured.
On the other hand, a compound of the present invention was dissolved or suspended in a 0.5% methyl cellulose solution and orally administered. Then, the blood pressure was measured upon expiration of 1 hour, 3 hours and 6 hours after the administration. [formula]

The target of the next data set is T1, Potassium channel (Rattus norvegicus, UniProt Q63563).
T1 construct: was extracted and formed into a spiral specimen; from tissue; host or cells: aorta of male Wistar rat (spiral strip)
The experiment in a line: Potassium channel activating action: relaxation of KCl-contracted rat aorta spiral specimen. Conditions: for inhibition at 10 µM: 10^-5 mol; for inhibition at 1 µM: 10^-6 mol; for inhibition at 0.1 µM: 10^-7 mol. The method, then:
The aorta of a male Wister rat having a body weight of about 240 g was extracted and formed into a spiral specimen, which was suspended under a load of 0.5 g in a Krebs.Henselate solution (37° C.) saturated with a gas mixture of 95% oxygen+5% carbon dioxide. Then, 20 mM or 60 mM potassium chloride was added thereto, and the contraction reaction was measured by means of an isometric transducer (manufactured by Nippon Koden K.K.). When the contraction reaction by potassium chloride reached the maximum, a compound of the present invention was cumulatively added, whereupon the relaxation reaction was measured. The relaxation reaction due to the drug was determined as a relaxation rate relative to the maximum contraction by potassium chloride.

Where [3] appears, read: 20 mM KCl, read-out: Relaxation rate (%) in 20 mM KCl.
The mark [4] stands for this setting: 60 mM KCl, read-out: Relaxation rate (%) in 60 mM KCl.

T1 sequence (Q63563 1-1545 isoform Q63563-2): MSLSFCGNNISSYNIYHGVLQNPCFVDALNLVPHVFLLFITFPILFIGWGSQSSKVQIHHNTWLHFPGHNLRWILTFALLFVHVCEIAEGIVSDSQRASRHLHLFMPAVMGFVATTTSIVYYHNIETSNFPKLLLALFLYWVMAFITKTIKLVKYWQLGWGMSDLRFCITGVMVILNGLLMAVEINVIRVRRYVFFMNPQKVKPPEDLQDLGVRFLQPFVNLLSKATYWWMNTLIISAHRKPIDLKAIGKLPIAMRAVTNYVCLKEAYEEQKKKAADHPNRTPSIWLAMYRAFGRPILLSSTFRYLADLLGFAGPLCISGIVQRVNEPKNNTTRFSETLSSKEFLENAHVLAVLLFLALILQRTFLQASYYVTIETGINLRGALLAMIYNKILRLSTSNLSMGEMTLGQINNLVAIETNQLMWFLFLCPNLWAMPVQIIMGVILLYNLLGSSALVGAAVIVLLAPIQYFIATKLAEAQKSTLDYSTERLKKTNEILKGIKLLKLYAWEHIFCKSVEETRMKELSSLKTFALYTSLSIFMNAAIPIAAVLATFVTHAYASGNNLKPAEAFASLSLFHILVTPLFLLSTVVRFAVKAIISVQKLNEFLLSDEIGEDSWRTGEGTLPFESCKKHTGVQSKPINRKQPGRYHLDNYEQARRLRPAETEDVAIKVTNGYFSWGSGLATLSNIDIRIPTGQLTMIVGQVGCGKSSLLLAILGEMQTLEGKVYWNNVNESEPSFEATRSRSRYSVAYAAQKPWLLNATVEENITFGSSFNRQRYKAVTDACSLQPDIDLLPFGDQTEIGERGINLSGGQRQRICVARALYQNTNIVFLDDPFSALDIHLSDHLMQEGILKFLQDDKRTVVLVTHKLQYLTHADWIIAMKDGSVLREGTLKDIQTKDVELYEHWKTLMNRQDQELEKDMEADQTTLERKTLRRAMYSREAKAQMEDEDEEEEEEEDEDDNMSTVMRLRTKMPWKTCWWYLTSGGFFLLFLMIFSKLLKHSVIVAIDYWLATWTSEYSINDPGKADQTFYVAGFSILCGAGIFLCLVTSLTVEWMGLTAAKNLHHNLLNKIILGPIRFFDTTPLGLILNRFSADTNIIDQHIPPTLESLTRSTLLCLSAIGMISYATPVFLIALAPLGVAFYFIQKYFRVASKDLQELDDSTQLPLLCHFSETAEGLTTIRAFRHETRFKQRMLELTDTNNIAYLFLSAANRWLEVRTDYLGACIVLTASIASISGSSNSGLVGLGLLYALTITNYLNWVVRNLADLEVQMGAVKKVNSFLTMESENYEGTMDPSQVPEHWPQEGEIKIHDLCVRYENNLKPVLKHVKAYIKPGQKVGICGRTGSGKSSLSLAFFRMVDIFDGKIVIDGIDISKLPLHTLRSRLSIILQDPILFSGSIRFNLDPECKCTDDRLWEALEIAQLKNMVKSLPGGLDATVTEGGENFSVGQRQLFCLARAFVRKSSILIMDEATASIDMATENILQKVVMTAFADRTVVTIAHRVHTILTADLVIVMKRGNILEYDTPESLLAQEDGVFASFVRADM
T1 sequence (Q63664 whole entry partner): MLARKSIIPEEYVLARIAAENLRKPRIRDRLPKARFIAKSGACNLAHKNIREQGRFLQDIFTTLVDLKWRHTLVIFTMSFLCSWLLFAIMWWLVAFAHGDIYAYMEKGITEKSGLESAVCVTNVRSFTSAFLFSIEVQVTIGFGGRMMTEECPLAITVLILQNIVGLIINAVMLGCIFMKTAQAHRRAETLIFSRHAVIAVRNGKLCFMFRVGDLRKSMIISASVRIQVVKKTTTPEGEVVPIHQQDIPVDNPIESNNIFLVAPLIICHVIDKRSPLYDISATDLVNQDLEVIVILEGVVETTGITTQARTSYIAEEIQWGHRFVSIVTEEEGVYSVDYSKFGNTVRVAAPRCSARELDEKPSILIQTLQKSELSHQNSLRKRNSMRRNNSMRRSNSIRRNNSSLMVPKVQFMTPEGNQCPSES

As to `CC(=NC#N)N[C@@H]1c2cc(C#N)ccc2OC(C)(C)[C@H]1O` (relative stereo) [Example 2, 6-cyano-3,4-dihydro-2,2-dimethyl-trans-4-[(N-cyano-acetimidoyl)amino]-2H-benzo[b]pyran-3-ol], the 50% lethal dose (LD50) at 72 h in data set [1] was ≥ 2000 mg/kg. Moreover, the “Change (%) from the value before administration” value (from here on “Change (%)”) is recorded as 10% in data set [2] (0.1 mg/kg, 1 hr later); 5% in data set [2] (0.1 mg/kg, 3 hrs later); 0% in data set [2] (0.1 mg/kg, 6 hrs later); 26% in data set [2] (0.3 mg/kg, 1 hr later); 17% in data set [2] (0.3 mg/kg, 3 hrs later); 12% in data set [2] (0.3 mg/kg, 6 hrs later). Besides, the “Change (%)” value in data set [2] (1 mg/kg, 1 hr later) stood at 42%; in data set [2] (1 mg/kg, 3 hrs later), 45%; in data set [2] (1 mg/kg, 6 hrs later) it was 26%; in data set [2] (3 mg/kg, 1 hr later), 60%; in data set [2] (3 mg/kg, 3 hrs later), 56%; in data set [2] (3 mg/kg, 6 hrs later), 58%. Also, the “Change (%)” value in data set [2] (10 mg/kg, 1 hr later) worked out at 64%; in data set [2] (10 mg/kg, 3 hrs later) it was 61%; in data set [2] (10 mg/kg, 6 hrs later), 61%. Moreover, the results for the inhibition at 10 µM at Potassium channel (setting [3]) and at Potassium channel (setting [4]) were 100% and 5.6%, respectively. Besides, the inhibition at 1 µM on Potassium channel (setting [3]) was 95.6%; at Potassium channel (setting [4]), 1%. The inhibition at 0.1 µM at Potassium channel (setting [3]) worked out at 30.6%; on Potassium channel (setting [4]) it was 0%. For the same compound, the inhibition at 0.01 µM at Potassium channel (setting [3]) turned out to be 6.8%; on Potassium channel (setting [4]), 0%.

For `CC(=NC#N)NC1=CC(C)(C)Oc2ccc(C#N)cc21` [Example 34, 6-cyano-2,2-dimethyl-4-[(N-cyano-acetimidoyl)amino]-2H-benzo[b]pyran], the LD50 at 72 h in data set [1] was ≥ 2000 mg/kg. For the same compound, the “Change (%)” value in data set [2] (0.1 mg/kg, 1 hr later) is given as 12%; in data set [2] (0.1 mg/kg, 3 hrs later), 5%; in data set [2] (0.1 mg/kg, 6 hrs later), 0%; in data set [2] (0.3 mg/kg, 1 hr later) it was 41%; in data set [2] (0.3 mg/kg, 3 hrs later) it was 45%; in data set [2] (0.3 mg/kg, 6 hrs later), 23%. Also, the “Change (%)” value in data set [2] (1 mg/kg, 1 hr later) is 62%; in data set [2] (1 mg/kg, 3 hrs later), 60%; in data set [2] (1 mg/kg, 6 hrs later), 57%; in data set [2] (3 mg/kg, 1 hr later), 65%; in data set [2] (3 mg/kg, 3 hrs later), 63%; in data set [2] (3 mg/kg, 6 hrs later), 63%. In addition, the “Change (%)” value came out at 64% in data set [2] (10 mg/kg, 1 hr later); 64% in data set [2] (10 mg/kg, 3 hrs later); 65% in data set [2] (10 mg/kg, 6 hrs later). The inhibition at 10 µM stood at 100% at Potassium channel (setting [3]) and 21.8% on Potassium channel (setting [4]). The inhibition at 1 µM at Potassium channel (setting [3]) came to 100%; on Potassium channel (setting [4]) it was 13.2%. For the same compound, the inhibition at 0.1 µM at Potassium channel (setting [3]) came to 94.3%; on Potassium channel (setting [4]) it was 4.5%. Further, the inhibition at 0.01 µM came out at 28.7% on Potassium channel (setting [3]) and 0% at Potassium channel (setting [4]).

For `COC(=O)C1=C(C)NC(C)=C(C(=O)OCCN(C)Cc2ccccc2)C1c1cccc([N+](=O)[O-])c1` (stereo not drawn) [Nicardipin, reference compound], the “Change (%)” value in data set [2] (3 mg/kg, 1 hr later) stood at 20%; in data set [2] (3 mg/kg, 3 hrs later), 8%; in data set [2] (3 mg/kg, 6 hrs later), 0%; in data set [2] (10 mg/kg, 1 hr later) it was 40%; in data set [2] (10 mg/kg, 3 hrs later) it was 9%; in data set [2] (10 mg/kg, 6 hrs later) it was 7%.
